These are literature values, as cited in US10980267B2, “Molecular particle superior delivery system” (priority 2018, dated 2021).

For series [1] the following is noted: in humans, WHO report.
For series [2] the following is noted: especially child seizures.
For series [3] the following is noted: consumed in foods and drinks.

Take `C=C(C)[C@@H]1CCC(C)=C[C@H]1c1c(O)cc(CCCCC)cc1O` [CBD, cannabidiol]: the “abuse or dependence potential” value in series [1] was “no effects indicative of any abuse or dependence potential”. Also, in series [2], the “effect on number of seizures” value is given as “reduce the number of seizures”. Besides, the “safety of consumption / toxicity” value in series [3] was “completely safe to consume in foods and drinks and is considered to be non-toxic”.
